Data: US12441980B2, “Methods for overcoming glutamine deprivation during mammalian cell culture” (priority 2014, dated 2025)

What was measured:
[1] = tested on: anti alpha-synuclein CHO cells; experiment: Transition of anti alpha-synuclein CHO cells from glutamine-containing to glutamine-free media: growth rate and viability
Description: Anti alpha-synuclein cells were transferred from glutamine-containing media to glutamine-free media using a 1:5 split ratio on Day 0. Cells were cultured at 36° C., 5% CO2 in 500 mL shake flasks and passaged every 4 days using glutamine-free media+10 mg/L insulin (first bar in FIG. 7A, diamond in FIG. 7B), glutamine-free media+10 mg/L insulin, 100 μM hypoxanthine, 16 μM thymidine (second bar in FIG. 7A, square in FIG. 7B), glutamine-free media+10 mg/L insulin, 500 μM adenosine (third bar in FIG. 7A, triangle in FIG. 7B), or glutamine-free media+10 mg/L insulin, 100 μM adenosine (fourth bar in FIG. 7A, circle in FIG. 7B), using a 1:5 split ratio.
Offline analysis: Samples were taken on most days and analyzed with a variety of equipment. Cell density and viability were measured using the standard technique of trypan blue exclusion using a Cedex (Roche Innovatis AG, Germany). Cell viability and growth rate of the various cultures were measured during the culture time course at specific days post-inoculation.
Anti alpha-synuclein CHO cells were transferred from glutamine-containing media to glutamine-free media using a 1:5 split ratio on Day 0.

[2] = tested on: mammalian cells expressing an immunoadhesin (DG44); experiment: Transition of immunoadhesin-expressing cells from glutamine-containing to glutamine-free media: cell viability and growth rate (trypan blue exclusion, Cedex); assay type: cell-based; conditions: 2.5 μM corticosteroid in glutamine-free media; FIG. 3
Description: Cell culture methods: Cells were thawed and maintained as in a previous report (Kshirsagar, et al. 2012 Biotechnol Bioeng, Huang, et al. Biotechnology Progress 26(5):1400-1410 (2010)). Basal medium for thaw and passing was the same as in previous reports (Kshirsagar/Huang).

Compound	toxicity (concentration-dependent response) ([1]; 500 μM supplementation compared to 100 μM supplementation)	viability during transition to glutamine-free media ([1]; HT 100 μM/16 μM, adenosine 500 μM or 100 μM, FIG. 7B)	transitional growth rate ([1]; transition to glutamine-free media, 1:5 split ratio, HT 100 μM/16 μM, adenosine 100 or 500 μM, FIG. 7A)	viability drop vs control condition [2]	viability recovery period [2]
Nc1ncnc2c1ncn2[C@@H]1O[C@H](CO)[C@@H](O)[C@H]1O [adenosine]	slightly toxic	maintains	boosted the transitional growth rate	–	–
C[C@]12C=CC(=O)C=C1CC[C@@H]1[C@@H]2[C@@H](O)C[C@@]2(C)[C@H]1CC[C@]2(O)C(=O)CO [prednisolone]	–	–	–	prevented the sharp viability drop	shortened the viability recovery period
C[C@]12CCC(=O)C=C1CC[C@@H]1[C@@H]2[C@@H](O)C[C@@]2(C)[C@H]1CC[C@]2(O)C(=O)CO [hydrocortisone]	–	–	–	prevented the sharp viability drop	shortened the viability recovery period
